The source of these data is article PMC12750270, “Design and Preclinical Evaluation of a ^68Ga-Labeled Macrocyclic Peptide PET Probe Targeting Transferrin Receptor 1 in Colorectal Cancer” (ACS Omega, 2025).

Data set [1] is classed as physicochemical. The settings on record: 37 °C, 24 h, ∼3.7 MBq in 200 μL, radio-HPLC. As to the method:
Collectively, these findings confirmed the suitability of ^68Ga-NOTA-TR01 for further preclinical applications.
[…] At each time point, radiochemical integrity was assessed via radio-HPLC by comparing the retention time of the incubated samples with that of a nonincubated control.

Data set [2] deals with HT29 cells (TfR1 high). Nature of the data set: Cellular binding/blocking assay in HT29 cells. The data set is classed as cell-based, human. The settings on record: for cellular binding: HT29, 37 °C, 37 kBq, γ-counter, triplicate. As to the method:
(§1) The percentage of added dose per 5 × 10^5 cells (%AD/5 × 10^5 cells) was as follows: at 30 min: 5.44 ± 0.12% (HT29) vs 2.63 ± 0.09% (LOVO), at 60 min: 6.36 ± 0.05% (HT29) vs 3.19 ± 0.23% (LOVO), at 120 min: 9.56 ± 0.17% (HT29) vs 4.51 ± 0.22% (LOVO).
(§2) The cell-specific binding of ^68Ga-NOTA-TR01 was evaluated in HT29 and LOVO cells. Cells were seeded in 12-well plates (5 × 10^5 cells/well) and cultured for 24 h under standard conditions (37 °C, 5% CO2). After washing with cold PBS, cells were incubated with 1 mL serum-free medium containing ^68Ga-NOTA-TR01 (37 kBq, ∼[…] corresponding to approximately 0.4 pmol of peptide). For blocking studies, parallel wells were pretreated with a 1,000-fold molar excess (3.3 nmol, 1 μg) of unlabeled TR01 peptide. Cellular binding was assessed at 0.5, 1, 2, and 4 h postincubation. Following incubation, cells were washed twice with ice-cold PBS, lysed in 1 M NaOH, and the associated radioactivity was measured using a γ-counter. Radioactivity data were corrected for decay using the ^68Ga decay constant (λ = 0.00876 min^– 1). Each condition was measured in triplicate for statistical accuracy.

Data set [3] deals with LOVO cells (TfR1 low). Nature of the data set: Cellular binding assay in LOVO cells. The data set is classed as cell-based, human. The settings on record: 37 °C, 37 kBq, γ-counter, triplicate. As to the method: as §1, §2
Data set [4] in a line: in vivo. Set-up: species or system BALB/c nude mice. The settings on record: BALB/c nude, mouse, iv, total radioactivity. As to the method: Three mice were included at each time point; %ID/g is the percentage of injected dose per gram of tissue.
Xenograft tumor models were established by subcutaneously injecting 1 × 10^7 LOVO or HT29 cells (in 100 μL PBS) into the right flank of 5–6-week-old BALB/c nude mice (purchased from Hangzhou Ziyuan Experimental Animal Technology). Tumor growth was monitored by caliper measurement, and imaging experiments were initiated once tumors reached a volume of 100–300 mm^3. All animal procedures were conducted in accordance with the institutional guidelines of the Animal Care and Use Committee at Soochow University.
A comparative biodistribution study was conducted in BALB/c nude mice (n = 3 per group), each intravenously injected with ^68Ga-NOTA-TR01 (1.85 ± 0.49 MBq, corresponding to ∼0.15 nmol peptide, in 100 μL saline). At 30-, 60-, and 120 min postinjection, mice were euthanized for terminal blood collection and organ harvesting. For blocking studies, an additional cohort was sacrificed at 60 min following coinjection with cold NOTA-TR01 (300 μg, ∼0.1 μmol per mouse). Excised tissues were perfused three times with PBS to remove residual blood, weighed, and their radioactivity quantified using a γ-counter. The biodistribution of the radiotracer was expressed as %ID/g. Tumor-to-background ratios (TBRs) were calculated to assess tracer specificity.

Data set [5] is described as follows: physchem. The format is physicochemical. How it is done:
The molar activity was determined to be greater than 20 GBq/μmol. The log P was calculated as −1.709 ± 0.121 (n = 6), indicating a hydrophilic profile.
The lipophilicity of ^68Ga-NOTA-TR01 was determined via a standard octanol–water partition method. A solution of ^68Ga-NOTA-TR01 [5 μL, 0.74 MBq in phosphate-buffered saline (PBS)] was mixed with 0.5 mL n-octanol and 0.495 mL PBS. The biphasic system was vortexed for 3 min and centrifuged at 4,000 rpm for 5 min to achieve phase separation. Aliquots (100 μL) from each layer were sampled, and radioactivity was measured using a γ-counter. The log P was calculated using the formula: log P = log (cpm_octanol/cpm_PBS).

Data set [6] addresses T1, human TfR1 (Homo sapiens, UniProt P02786).
T1 construct: Fc; purchased Acro Biosystems TFR-H5264
Nature of the data set: Surface plasmon resonance (SPR) binding affinity assay, Biacore 8K. The settings on record: recombinant human TfR1-Fc immobilized, read-out: association rate constant (Ka). How it is done: 1 (A) Synthetic scheme for^68 Ga-NOTA-TR01; (B) ESI-MS analysis of TR01; (C) Binding response (nm) between human TfR1 and varying concentrations (62.5–1,000 nM) of TR01; (D, E) Stability assessment of ^68 Ga-NOTA-TR01 in PBS and serum at 37 °C, measured by radio-HPLC.
SPR was employed to quantify the binding interaction between TR01 and TfR1.
The binding affinity of NOTA-TR01 to human TfR1 was evaluated by surface plasmon resonance (SPR) using a Biacore 8K system (Cytiva, USA) at Nanjing Genscript Probio. Recombinant human TfR1-Fc protein (TFR-H5264, Acro Biosystems) was immobilized on the sensor chip for kinetic analysis. The assay was performed under acidic conditions (pH 2.0) using a running buffer containing […]. Real-time binding data were collected at a 1:1 ligand-to-analyte ratio. The equilibrium dissociation constant (KD) was calculated by globally fitting the association and dissociation curves.
Background: In SPR one partner is held on a chip, and binding of the other changes the refractive index at the surface.

T1 sequence (P02786 whole entry): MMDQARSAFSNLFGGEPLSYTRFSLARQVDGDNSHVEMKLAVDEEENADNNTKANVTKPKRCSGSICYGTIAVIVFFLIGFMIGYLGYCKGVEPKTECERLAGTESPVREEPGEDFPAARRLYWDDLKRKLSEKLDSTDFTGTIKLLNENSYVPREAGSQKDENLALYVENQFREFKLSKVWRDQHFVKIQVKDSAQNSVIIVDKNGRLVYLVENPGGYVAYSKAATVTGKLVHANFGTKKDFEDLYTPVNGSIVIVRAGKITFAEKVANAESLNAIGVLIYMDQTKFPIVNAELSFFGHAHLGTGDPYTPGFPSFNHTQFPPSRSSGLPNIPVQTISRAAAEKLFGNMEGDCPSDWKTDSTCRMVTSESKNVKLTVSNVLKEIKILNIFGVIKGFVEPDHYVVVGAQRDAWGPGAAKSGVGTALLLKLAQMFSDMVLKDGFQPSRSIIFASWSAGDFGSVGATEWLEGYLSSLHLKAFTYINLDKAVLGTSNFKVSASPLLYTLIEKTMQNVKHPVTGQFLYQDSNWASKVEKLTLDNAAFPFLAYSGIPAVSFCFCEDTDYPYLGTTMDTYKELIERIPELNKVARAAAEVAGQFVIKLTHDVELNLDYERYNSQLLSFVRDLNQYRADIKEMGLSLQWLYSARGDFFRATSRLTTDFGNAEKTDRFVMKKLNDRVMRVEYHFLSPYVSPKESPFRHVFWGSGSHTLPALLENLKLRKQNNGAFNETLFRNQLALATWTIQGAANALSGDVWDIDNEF

In the case of `CC[C@H](C)[C@@H]1NC(=O)[C@H](Cc2ccc(O)cc2)NC(=O)[C@H](Cc2ccc(O)cc2)NC(=O)[C@H](CC(N)=O)NC(=O)[C@H](Cc2c[nH]c3ccccc23)NC(=O)[C@H](C(C)C)NC(=O)[C@H](Cc2ccccc2)NC(=O)[C@H](C(C)C)NC(=O)[C@H](C)NC(=O)CSC[C@@H](C(=O)NCCOCCOCCOCCOCCOCCOCCOCCOCCOCCOCCOCCOCCC(=O)N[C@@H](CCCCNC(=O)CN2CCN(CC(=O)O)CCN(CC(=O)O)CC2)C(=O)O)NC(=O)[C@H](Cc2ccc(O)cc2)N(C)C(=O)[C@H](Cc2ccc(O)cc2)NC(=O)[C@H](CCCNC(=N)N)NC(=O)[C@H](CCCNC(=N)N)NC(=O)[C@H]([C@@H](C)CC)NC1=O` [^68Ga-NOTA-TR01, metal not drawn], the “radiochemical integrity after incubation in PBS” value in data set [1] is given as over 98%. Also, the cellular binding in data set [2] (30 min) was 5.44 ± 0.12 %AD/5 × 10^5 cells; in data set [2] (60 min) it was 6.36 ± 0.05 %AD/5 × 10^5 cells; in data set [2] (120 min), 9.56 ± 0.17 %AD/5 × 10^5 cells; in data set [3] (30 min), 2.63 ± 0.09 %AD/5 × 10^5 cells; in data set [3] (60 min), 3.19 ± 0.23 %AD/5 × 10^5 cells; in data set [3] (120 min), 4.51 ± 0.22 %AD/5 × 10^5 cells. For the same molecule, the “cellular binding, blocking group” value in data set [2] (HT29, preincubation with 1,000-fold molar excess of unlabeled TR01, 30 min) amounted to 1.58 ± 0.06%; in data set [2] (HT29, preincubation with 1,000-fold molar excess of unlabeled TR01, 60 min), 1.34 ± 0.29%; in data set [2] (HT29, preincubation with 1,000-fold molar excess of unlabeled TR01, 120 min) it was 1.27 ± 0.09%. The “inhibition of cell binding by cold peptide” value in data set [2] (HT29 cells, cold peptide) is recorded as “over 85%”. The tissue to tissue ratio at 2 h in data set [4] was over 7. In data set [5], this molecule yielded a logD of -1.71 ± 0.121.
Regarding `CC[C@H](C)[C@@H]1NC(=O)[C@H](Cc2ccc(O)cc2)NC(=O)[C@H](Cc2ccc(O)cc2)NC(=O)[C@H](CC(N)=O)NC(=O)[C@H](Cc2c[nH]c3ccccc23)NC(=O)[C@H](C(C)C)NC(=O)[C@H](Cc2ccccc2)NC(=O)[C@H](C(C)C)NC(=O)[C@H](C)NC(=O)CSC[C@@H](C(=O)NCCOCCOCCOCCOCCOCCOCCOCCOCCOCCOCCOCCOCCC(=O)N[C@@H](CCCCNC(=O)CN2CCN(CC(=O)O)CCN(CC(=O)O)CC2)C(=O)O)NC(=O)[C@H](Cc2ccc(O)cc2)N(C)C(=O)[C@H](Cc2ccc(O)cc2)NC(=O)[C@H](CCCNC(=N)N)NC(=O)[C@H](CCCNC(=N)N)NC(=O)[C@H]([C@@H](C)CC)NC1=O` [NOTA-TR01, cyclo(Ac-Ala-Val-Phe-Val-Trp-Asn-Tyr-Tyr-Ile-Ile-Arg-Arg-Tyr-NMe-Tyr-Cys)-PEG12-Lys-NOTA], the kon in data set [6] stood at 77300 M⁻¹ s⁻¹.

By logD is commonly meant lipophilicity at a set pH, counting ionised and neutral species.
